Test results reported in ChEMBL document CHEMBL5050844 (2019).

Legend:
Type in all cases: functional
[1] = Induction of anti-CD3 antibodies-stimulated human CD8+ T cell activation in immunocompetent mouse assessed fold increase in CD25 expression at 90 mg/kg, ip administered twice a day
[2] = Induction of anti-CD3 antibodies-stimulated human T cell activation in immunocompetent mouse assessed fold increase in IL-2 secretion at 90 mg/kg, ip administered twice a day
[3] = Induction of anti-CD3 antibodies-stimulated human T cell activation in immunocompetent mouse assessed fold increase in IL-2 secretion at 90 mg/kg, ip administered thrice a day
[4] = Induction of anti-CD3 antibodies-stimulated human T cell activation in immunocompetent mouse assessed fold increase in IFN-gamma secretion at 90 mg/kg, ip administered twice a day
[5] = Induction of anti-CD3 antibodies-stimulated human T cell activation in immunocompetent mouse assessed fold increase in IFN-gamma secretion at 90 mg/kg, ip administered thrice a day
[6] = Induction of anti-CD3 antibodies-stimulated human T cell activation in immunocompetent mouse assessed fold increase in TNFalpha secretion at 90 mg/kg, ip administered twice a day
[7] = Induction of anti-CD3 antibodies-stimulated human T cell activation in immunocompetent mouse assessed fold increase in TNF-alpha secretion at 90 mg/kg, ip administered thrice a day
[8] = Induction of anti-CD3 antibodies-stimulated human CD8+ T cell activation in immunocompetent mouse assessed fold increase in CD25 expression at 45 mg/kg, po administered twice a day
Further: reference of the scale not given here.

Question: Which results are given for `C[C@@H](Sc1nncn1C)c1cccc(NC(=O)c2cccc(C(F)(F)F)n2)c1`?
Answer: fold change (FC) [1]: <1; fold change (FC) [2]: <1; fold change (FC) [3]: <1; fold change (FC) [4]: <1; fold change (FC) [5]: <1; fold change (FC) [6]: 1; fold change (FC) [7]: <1

Question: For `Cc1cc(C(=O)Nc2cccc(C3(Cc4nncn4C)COC3)c2)nc(C2CC2)n1`, which “fold change (FC)” value [8] is on record?
Answer: 1

Question: Which “fold change (FC)” value [1] does the source give for `C[C@H](Sc1nncn1C)c1cccc(NC(=O)c2cccc(C(F)(F)F)n2)c1` here?
Answer: <1

Question: What about the “fold change (FC)” value [2] of the same compound?
Answer: >2.5

Question: And the “fold change (FC)” value [3]?
Answer: >2.5

Question: What about the “fold change (FC)” value [4] of the same compound?
Answer: 1

Question: What about the “fold change (FC)” value [5] of the same compound?
Answer: 2.01

Question: And the “fold change (FC)” value [6]?
Answer: >2.5

Question: What about the “fold change (FC)” value [7] of the same compound?
Answer: >2.5

Question: With `Cn1cnnc1CC1(c2cccc(N3Cc4c(cc(CN5CCC6(CC6)C5)cc4C(F)(F)F)C3=O)c2)COC1` as the compound, how does the “fold change (FC)” value [8] read?
Answer: 1
